# Results from paper PMC12108457, “Trimethylamine N-Oxide (TMAO) Acts as Inhibitor of Endothelial Nitric Oxide Synthase (eNOS) and Hampers NO Production and Acetylcholine-Mediated Vasorelaxation in Rat Aortas” (Antioxidants, 2025).
# Columns and labels:
# Type in all cases: cell-based
# [1] = biological target: T1, endothelial nitric oxide synthase (eNOS) (Homo sapiens, UniProt P29474); assay: NO production (DAF-FM) in HUVECs with L-arginine competition; deuterated L-arginine to L-citrulline conversion by MS
# T1 construct: gene NOS3
# T1 sequence (P29474 2-1203): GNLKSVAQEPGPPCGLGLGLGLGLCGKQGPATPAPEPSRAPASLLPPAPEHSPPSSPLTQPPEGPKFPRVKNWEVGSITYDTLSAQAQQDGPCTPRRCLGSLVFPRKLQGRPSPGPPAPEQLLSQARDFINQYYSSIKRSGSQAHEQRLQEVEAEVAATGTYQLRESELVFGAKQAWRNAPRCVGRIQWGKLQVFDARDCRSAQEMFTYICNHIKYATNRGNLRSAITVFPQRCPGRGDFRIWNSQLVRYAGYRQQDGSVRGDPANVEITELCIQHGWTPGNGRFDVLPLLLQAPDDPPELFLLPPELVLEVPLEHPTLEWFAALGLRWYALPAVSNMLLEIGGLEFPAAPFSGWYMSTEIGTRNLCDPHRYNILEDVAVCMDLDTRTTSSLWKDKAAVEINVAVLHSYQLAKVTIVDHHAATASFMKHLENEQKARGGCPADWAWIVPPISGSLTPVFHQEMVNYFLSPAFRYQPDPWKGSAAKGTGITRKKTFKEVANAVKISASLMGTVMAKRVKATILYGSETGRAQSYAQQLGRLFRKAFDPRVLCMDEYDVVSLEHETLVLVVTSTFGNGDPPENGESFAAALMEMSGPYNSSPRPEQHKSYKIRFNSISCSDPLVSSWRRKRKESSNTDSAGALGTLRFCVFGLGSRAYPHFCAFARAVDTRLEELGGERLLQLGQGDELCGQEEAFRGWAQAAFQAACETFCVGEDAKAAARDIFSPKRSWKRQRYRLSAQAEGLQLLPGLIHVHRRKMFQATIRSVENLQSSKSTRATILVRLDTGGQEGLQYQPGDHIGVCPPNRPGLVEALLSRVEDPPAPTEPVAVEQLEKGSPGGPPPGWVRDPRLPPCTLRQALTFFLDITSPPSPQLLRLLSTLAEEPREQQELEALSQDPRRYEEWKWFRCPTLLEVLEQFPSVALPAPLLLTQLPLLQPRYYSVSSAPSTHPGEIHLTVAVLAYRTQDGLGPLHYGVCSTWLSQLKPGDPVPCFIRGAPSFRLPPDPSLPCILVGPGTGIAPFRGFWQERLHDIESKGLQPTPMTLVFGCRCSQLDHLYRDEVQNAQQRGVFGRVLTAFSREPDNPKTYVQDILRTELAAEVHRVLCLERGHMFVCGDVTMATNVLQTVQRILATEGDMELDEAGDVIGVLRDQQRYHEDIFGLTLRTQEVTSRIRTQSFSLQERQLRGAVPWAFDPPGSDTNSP
# [2] = biological target: T1, endothelial nitric oxide synthase (eNOS); assay: conversion of deuterated L-arginine to L-citrulline in HUVECs by MS; […] L-arginine rescues NO production
# [3] = biological target: T1, endothelial nitric oxide synthase (eNOS); assay: NO (DAF-FM) and ROS production in HUVECs at […] L-NAME
smiles,measurement,setting,value
C[N+](C)(C)[O-] [Trimethylamine N-oxide],EC50,[1],2500 ± 300 nM
N=C(N)NCCC[C@H](N)C(=O)O [L-arginine],conversion of deuterated L-arginine to L-citrulline in HUVECs by MS; 20 mM L-arg,[2],we measured the rate of L-arginine’s conversion to L-citrulline by using stable isotope labeling and mass spectrometry
COC(=O)[C@@H](N)CCCNC(N)=N[N+](=O)[O-] [L-NAME],NO (DAF-FM) and ROS production in HUVECs at 1 mM L-NAME,[3],"NO production is indeed eNOS-dependent, as proven by the eNOS inhibitor L-NAME, whose presence strongly abolishes NO production"
